Series [1] in a line: RP-HPLC stability of [125I]Azido-LTD4 under binding assay conditions with guinea-pig lung membrane. The class given is in vitro ADME. The note with it: 60 min. How it is done:
RP-HPLC was conducted to assess the stability of [^125 I]Azido-LTD4 under binding assay conditions. […] Following a 60 min incubation at room temperature, samples were centrifuged at 150,000×g for 15 min at 4° C. The supernatant (unbound radioligand) was removed and the membrane pellet was resuspended by sonication in 150 μl of RP-HPLC solvent ([…] (v/v) MeOH:H2O:HOAc containing 0.01% 2-mercaptoethanol and 0.5 mM EDTA). The samples were centrifuged at 150,000×g for 15 min at 4° C. and the supernatent removed (bound radioligand). Bound and unbound radioligand fractions (100 μl) were analysed by RP-HPLC using a Nova Pac C18 column (0.39 ×15 cm; Waters Assoc.) eluted isocratically at a flow rate of 1 ml/min with RP-HPLC solvent. The profile of iodinated material from bound and unbound radioligand samples was determined by on-line solid scintillation gamma counting (Berthold HPLC radioactivity monitor LB 506 C1). [^125 I]Azido-LTD4 was identified by […] of non-radioactive [^127 I]Azido-LTD4 monitored by optical density at 280 nm.
FIGS. 2(A) and 2(B) RP-HPLC analysis of [^125 I]Azido-LTD4 stability. RP-HPLC was used to assess the stability of [^125 I]Azido-LDT4 under the conditions routinely employed for binding assays as described in the Methods.

Series [2] deals with T1, LTD4 receptor (guinea-pig lung membranes) (Cavia porcellus, UniProt Q2NNR5).
T1 sequence (Q2NNR5 1-340): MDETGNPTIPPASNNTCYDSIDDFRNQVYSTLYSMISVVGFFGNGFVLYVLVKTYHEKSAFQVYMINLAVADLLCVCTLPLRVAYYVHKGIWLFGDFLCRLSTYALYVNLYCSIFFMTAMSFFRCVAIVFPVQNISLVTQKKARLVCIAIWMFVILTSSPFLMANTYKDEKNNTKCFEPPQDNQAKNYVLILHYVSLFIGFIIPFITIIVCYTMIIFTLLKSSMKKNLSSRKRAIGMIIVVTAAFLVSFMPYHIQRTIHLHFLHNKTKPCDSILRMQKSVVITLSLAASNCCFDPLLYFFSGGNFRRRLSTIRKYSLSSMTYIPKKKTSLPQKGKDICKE
Nature of the series: Rates of association and dissociation of radioligand binding to guinea-pig lung membranes. More on the design: Guinea pigs (male; from tissue; host or cells: guinea-pig lung (primarily parenchyma), sucrose-gradient membrane fraction. How it is done: FIG. 3. […] Aliquots (500 μl) were removed and filtered at the required time intervals.

Series [3] deals with T1, LTD4 receptor (guinea-pig lung membranes). The note with it: 60 pM radioligand, 20-30 μg membrane protein. How it is done: Guinea pigs (male; 350 g) were sacrificed by cervical dislocation and the lung tissues removed. All subsequent procedures were performed either on ice or at 4° C. Connective tissue, trachea, large blood vessels and major airways were dissected away and the remaining lung tissue (primarily parenchyma) was finely minced prior to homogenisation in 10 vol of 10 mM HEPES/KOH pH 7.4, containing 0.25 M sucrose, 2 mM EDTA, 2 mM phenylmethylsulphonyl fluoride, 10 μg/ml pepstatin, 10 μg/ml leupeptin and 10 μM E-64, using 5 s bursts of a polytron (Brinkman Instruments). The homogenate was subjected to differential centrifugation at 1000×g for 10 min, 10,000×g for 10 min and 100,000×g for 40 min. The resulting 100,000×g pellets were resuspended in 10 mM HEPES/KOH pH 7.4, containing 10% (w/v) sucrose, at a final protein concentration of 1-2 mg/ml. This tissue suspension was carefully layered over 10 mM HEPES/KOH pH 7.4 containing 40% (w/v) sucrose in a 3:2 (v/v) ratio. The discontinuous sucrose gradient was centrifuged at 83,000×g for 60 min. The membrane fraction located at the interface of the sucrose gradient layers was recovered, diluted 10-fold in 10 mM HEPES/KOH pH 7.4 and further centrifuged at 150,000×g for 40 min. The final membrane pellets were resuspended in 10 mM HEPES/KOH pH 7.4 at a protein concentration of 2-4 mg/ml and stored at […].
Filters were then washed with 16 ml of 10 mM HEPES/KOH, pH 7.4 containing 0.01% (w/v) bovine serum albumin, at 4° C.
FIG. 4. […] Radiolabelled proteins were resolved by SDS-PAGE and visualized by autoradiography. […] In addition, photoaffinity labelled membranes were subjected to immunoprecipitation with RAGpAlb (Lane C) and non-immune rabbit serum (Lane D), as described in the Methods. The migration of molecular weight standards is indicated on the left. FIGS. 5(A)-5(C). […] Results are expressed as percentage of maximum specific binding as a function of CaCl2 concentration. […] Only the results for total binding are shown.
Results are expressed as percentage of maximum specific binding as a function of nucleotide concentration. […] Only the results for total binding are shown.
Results are expressed as percentage of maximum specific binding as a function of cation concentration. […] Only the results for total binding are shown.

For series [4] the target is unchanged. The experiment in a line: Saturation binding to guinea-pig lung membranes, Scatchard plot analysis. More on the design: Guinea pigs (male; 350 g) were sacrificed by cervical dislocation and the lung tissues removed; from tissue; host or cells: guinea-pig lung (primarily parenchyma), sucrose-gradient membrane fraction.
Series [5] concerns 66.2 kDa protein (guinea-pig serum albumin). The experiment in a line: Photoaffinity labelling of 66.2 kDa protein and immunoprecipitation with rabbit anti-guinea-pig albumin antisera. The class given is binding. The settings on record: lung membranes and guinea-pig serum. How it is done:
Samples were incubated for 60 min at room temperature. Aliquots (2×500 μl) were then removed and the bound [^125 I]Azido-LTD4 quantified as described for the filtration binding assays. The residual samples were then transferred to 25 mm diameter cluster plate well for photolysis. The cluster plates were placed on aluminium blocks, pre-cooled to -20° C., and illuminated from above with a 40 W ultraviolet light source (Phillips, γmax =350 nm) at a distance of 10 cm for 2 min. The guinea-pig lung membranes were then recovered from 1 ml sample aliquots by centrifugation at 150,000×g for 15 min at 4° C. and solubilized in sodium dodecyl sulphate polyacrylamide gel electrophoresis (SDS-PAGE) sample buffer prior to resolution of the proteins by SDS-PAGE (Laemmli, 1970). Protein bands were visualized by Coomassie Blue staining while radiolabelled proteins were identified by autoradiography of dried gels and quantified by laser densitometry (Molecular Dynamics, ImageQuant).
The TXIP solubilized samples were centrifuged at 14,000×g for 15 min at 4° C. and the supernatant mixed directly with 50 μl of non-immune rabbit serum or RAGpAlb premixed for 15 min at 4° C. with 80 μl of protein A-Sepharose (50 mg/ml in TXIP). […] The final immunocomplex was dissociated by resuspension in SDS-PAGE sample buffer for 5 min at 95° C. and analysed by SDS-PAGE and autoradiography of the dried gels. […]

The test system of series [6] is 45 kDa guinea-pig lung membrane protein. The experiment in a line: Deglycosylation of the photoaffinity labelled 45 kDa guinea-pig lung membrane protein by N-Glycosidase F. The class given is biochemical. The note with it: 1 μM LTD4. How it is done: FIG. 10. […] Following photolysis the guinea-pig lung membranes were recovered from 1 ml sample aliquots by centrifugation at 150,000×g for 15 min at 4° C. The membranes were then solubilized in 20 μl of incubation buffer (20 mM NaHPO4, pH 7.4, containing 10 mM EDTA and 1 % (v/v) 2-mercaptoethanol) containing 1 % (w/v) SDS. The solubilized preparation was then diluted with incubation buffer to a final volume of 200 μl containing 1 % (w/v) octylglucoside and 0-60 U / ml of recombinant N-Glycosidase F, and incubated overnight at room temperature. Samples were further diluted in 3-fold concentrated SDS sample buffer and analysed by SDS-PAGE, followed by autoradiography. […] The migration of the molecular weight standards is indicated on the left.
In every case the only detectable product was the 40 kDa protein. […] This is also supported by qualitative evidence since the radiolabelled precursor migrated as a diffuse band during SDS-PAGE, behaviour typical of glycoproteins, while the deglycosylated product migrated as a more focused band.

SMILES strings stand for the structures.

What is called Kd is the constant that tells how readily two partners part at equilibrium. As for `CCCCC/C=C\C\C=C/C=C/C=C/[C@@H](SC[C@H](NC(=O)CCCCCNC(=O)c1cc([125I])c(N=[N+]=[N-])cc1O)C(=O)NCC(=O)O)[C@@H](O)CCCC(=O)O` [[^125 I]Azido-LTD4], in series [1] (room temperature, lung membrane, pH 7.4), the stability of radioligand result was “completely stable”. Also, the “recovery of radioactive material following RP-HPLC” value in series [1] (bound and unbound fractions after incubation with lung membrane, 60 pM) is given as “approximately 100%”. Moreover, the “dissociation of binding by 1 μM LTD4” value in series [2] (1 μM LTD4, additional 50 min incubation) was “approximately 50%”. Further, the “association: time to reach equilibrium” value in series [2] (guinea-pig lung membranes) was 60 min. Further, in series [2] (to non-specific levels), the “dissociation of binding by 1 μM LTD4 with 10 μM GTPγS” value is “almost instantaneous and complete dissociation”. The “fraction of added radioligand bound to guinea-pig lung membranes” value in series [3] was 10-20%. Besides, the “maximum number of binding sites (Bmax)” value in series [4] (Scatchard, single site) is recorded as 1000 fmol/mg protein. The Kd in series [4] (read-out: equilibrium dissociation constant (KD)) is 0.2 nM. In series [5], the “radiolabelling of 66.2 kDa protein (selectivity)” value is reported as “non-selectively labelled”.
Consider `CCCCC/C=C\C\C=C/C=C/C=C/[C@@H](SC[C@H](N)C(=O)NCC(=O)O)[C@@H](O)CCCC(=O)O` [LTD4], for which, in series [6], the “presence of radiolabelled precursor and product after pretreatment with LTD4” value was “not present”.

The values above are taken from patent US5310884A (Merck Frosst Canada, Inc., priority 1992, dated 1994).
